From publication PMC8620908, “Design, Synthesis, In Vitro Anticancer Evaluation and Molecular Modelling Studies of 3,4,5-Trimethoxyphenyl-Based Derivatives as Dual EGFR/HDAC Hybrid Inhibitors” (Pharmaceuticals, 2021)
Read-outs that look alike come from different tables or passages of the source.

Columns and labels:
[1] = tested on: A549; test: Antiproliferative MTT assay, A549; details: Homo sapiens, A549, read-out: Antiproliferative Activity IC50 ± SEM, A549
[2] = tested on: HCT116; test: Antiproliferative MTT assay, HCT116; details: Homo sapiens, HCT-116, read-out: Antiproliferative Activity IC50 ± SEM, HCT116
[3] = tested on: MCF-7; test: Antiproliferative MTT assay, MCF-7; details: Homo sapiens, MCF7, read-out: Antiproliferative Activity IC50 ± SEM, MCF-7
[4] = tested on: HepG2; test: Antiproliferative MTT assay, HepG2; details: Homo sapiens, HepG2, read-out: Antiproliferative Activity IC50 ± SEM, HepG2
[5] = molecular target: HDAC1 (Homo sapiens, UniProt Q13547); test: In vitro HDAC inhibition assay, HDAC1
[6] = molecular target: HDAC4 (Homo sapiens, UniProt P56524); test: In vitro HDAC inhibition assay, HDAC4
[7] = molecular target: HDAC2 (Homo sapiens, UniProt Q92769); test: In vitro HDAC inhibition assay, HDAC2
[8] = molecular target: T1, HDAC8 (Homo sapiens, UniProt Q9BY41); test: In vitro HDAC inhibition assay, HDAC8
T1 sequence (Q9BY41 1-377): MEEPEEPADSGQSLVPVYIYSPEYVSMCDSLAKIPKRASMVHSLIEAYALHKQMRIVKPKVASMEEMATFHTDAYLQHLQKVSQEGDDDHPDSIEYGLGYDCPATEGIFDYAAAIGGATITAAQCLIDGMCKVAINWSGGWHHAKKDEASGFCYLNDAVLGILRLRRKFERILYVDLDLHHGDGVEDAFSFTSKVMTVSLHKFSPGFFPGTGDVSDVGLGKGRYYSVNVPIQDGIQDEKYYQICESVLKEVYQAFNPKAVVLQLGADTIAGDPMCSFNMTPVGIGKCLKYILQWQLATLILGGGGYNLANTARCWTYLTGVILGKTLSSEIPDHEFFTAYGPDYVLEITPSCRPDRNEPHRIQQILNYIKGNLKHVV

[9] = molecular target: EGFR (Homo sapiens, UniProt P00533); test: EGFR-TK inhibition, cell-free assay; assay type: biochemical
[10] = molecular target: T2, HDAC6 (Homo sapiens, UniProt Q9UBN7); test: In vitro HDAC inhibition assay, HDAC6
T2 sequence (Q9UBN7 1-1215): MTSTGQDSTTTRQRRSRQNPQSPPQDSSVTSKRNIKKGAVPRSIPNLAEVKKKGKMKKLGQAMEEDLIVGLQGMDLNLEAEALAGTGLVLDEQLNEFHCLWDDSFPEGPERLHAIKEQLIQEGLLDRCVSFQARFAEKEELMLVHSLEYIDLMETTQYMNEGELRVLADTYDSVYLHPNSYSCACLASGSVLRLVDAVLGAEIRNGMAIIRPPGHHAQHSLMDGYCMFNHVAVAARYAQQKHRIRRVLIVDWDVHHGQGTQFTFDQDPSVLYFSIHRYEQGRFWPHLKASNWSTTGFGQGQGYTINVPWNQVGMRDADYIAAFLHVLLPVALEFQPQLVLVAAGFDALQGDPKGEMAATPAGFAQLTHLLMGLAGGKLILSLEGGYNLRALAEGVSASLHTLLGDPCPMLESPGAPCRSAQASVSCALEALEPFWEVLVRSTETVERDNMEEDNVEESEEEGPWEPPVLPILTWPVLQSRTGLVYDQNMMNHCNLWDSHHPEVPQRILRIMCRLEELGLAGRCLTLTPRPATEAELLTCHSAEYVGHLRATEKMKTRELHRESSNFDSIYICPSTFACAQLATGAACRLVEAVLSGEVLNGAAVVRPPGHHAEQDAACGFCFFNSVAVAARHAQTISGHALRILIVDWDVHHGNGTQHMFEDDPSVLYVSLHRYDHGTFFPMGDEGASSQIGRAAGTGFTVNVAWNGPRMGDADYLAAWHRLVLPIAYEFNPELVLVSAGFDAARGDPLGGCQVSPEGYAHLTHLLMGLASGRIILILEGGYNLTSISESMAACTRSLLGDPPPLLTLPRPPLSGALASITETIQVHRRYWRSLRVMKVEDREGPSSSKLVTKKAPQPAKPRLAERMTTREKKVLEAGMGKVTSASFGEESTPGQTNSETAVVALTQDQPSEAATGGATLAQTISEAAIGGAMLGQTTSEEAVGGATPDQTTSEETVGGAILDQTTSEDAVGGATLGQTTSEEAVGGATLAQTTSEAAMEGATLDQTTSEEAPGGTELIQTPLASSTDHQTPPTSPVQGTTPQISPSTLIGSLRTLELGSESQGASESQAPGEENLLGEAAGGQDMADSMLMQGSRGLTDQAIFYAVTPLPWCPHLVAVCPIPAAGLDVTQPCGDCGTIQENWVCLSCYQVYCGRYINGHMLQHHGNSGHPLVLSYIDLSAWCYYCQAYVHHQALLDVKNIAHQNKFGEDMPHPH

[11] = tested on: Caspase-3; test: Caspase-3 level assay in HepG2 cancer cell line; assay type: cell-based, human
[12] = tested on: Caspase-8; test: Caspase-8 level assay in HepG2 cancer cell line; assay type: cell-based, human; details: HepG2 cancer cell line
[13] = tested on: Bax; test: Bax level assay in HepG2 cancer cell line; assay type: cell-based; details: HepG2 cancer cell line

Chain of HDAC1 (Q13547 whole entry): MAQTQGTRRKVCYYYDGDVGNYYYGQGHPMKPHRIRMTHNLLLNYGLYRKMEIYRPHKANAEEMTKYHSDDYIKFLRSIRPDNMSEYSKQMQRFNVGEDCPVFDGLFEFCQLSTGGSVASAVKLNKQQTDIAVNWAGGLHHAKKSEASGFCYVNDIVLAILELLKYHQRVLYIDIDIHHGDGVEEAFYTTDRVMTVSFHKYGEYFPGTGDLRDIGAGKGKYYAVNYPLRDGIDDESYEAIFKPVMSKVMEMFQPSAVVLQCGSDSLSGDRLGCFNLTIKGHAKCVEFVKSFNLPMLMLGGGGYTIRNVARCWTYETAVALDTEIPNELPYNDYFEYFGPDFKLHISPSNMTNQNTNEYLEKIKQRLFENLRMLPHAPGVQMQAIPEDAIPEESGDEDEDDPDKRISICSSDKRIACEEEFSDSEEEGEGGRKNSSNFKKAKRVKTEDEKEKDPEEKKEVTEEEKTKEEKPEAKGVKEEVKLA
Chain of HDAC4 (P56524 whole entry): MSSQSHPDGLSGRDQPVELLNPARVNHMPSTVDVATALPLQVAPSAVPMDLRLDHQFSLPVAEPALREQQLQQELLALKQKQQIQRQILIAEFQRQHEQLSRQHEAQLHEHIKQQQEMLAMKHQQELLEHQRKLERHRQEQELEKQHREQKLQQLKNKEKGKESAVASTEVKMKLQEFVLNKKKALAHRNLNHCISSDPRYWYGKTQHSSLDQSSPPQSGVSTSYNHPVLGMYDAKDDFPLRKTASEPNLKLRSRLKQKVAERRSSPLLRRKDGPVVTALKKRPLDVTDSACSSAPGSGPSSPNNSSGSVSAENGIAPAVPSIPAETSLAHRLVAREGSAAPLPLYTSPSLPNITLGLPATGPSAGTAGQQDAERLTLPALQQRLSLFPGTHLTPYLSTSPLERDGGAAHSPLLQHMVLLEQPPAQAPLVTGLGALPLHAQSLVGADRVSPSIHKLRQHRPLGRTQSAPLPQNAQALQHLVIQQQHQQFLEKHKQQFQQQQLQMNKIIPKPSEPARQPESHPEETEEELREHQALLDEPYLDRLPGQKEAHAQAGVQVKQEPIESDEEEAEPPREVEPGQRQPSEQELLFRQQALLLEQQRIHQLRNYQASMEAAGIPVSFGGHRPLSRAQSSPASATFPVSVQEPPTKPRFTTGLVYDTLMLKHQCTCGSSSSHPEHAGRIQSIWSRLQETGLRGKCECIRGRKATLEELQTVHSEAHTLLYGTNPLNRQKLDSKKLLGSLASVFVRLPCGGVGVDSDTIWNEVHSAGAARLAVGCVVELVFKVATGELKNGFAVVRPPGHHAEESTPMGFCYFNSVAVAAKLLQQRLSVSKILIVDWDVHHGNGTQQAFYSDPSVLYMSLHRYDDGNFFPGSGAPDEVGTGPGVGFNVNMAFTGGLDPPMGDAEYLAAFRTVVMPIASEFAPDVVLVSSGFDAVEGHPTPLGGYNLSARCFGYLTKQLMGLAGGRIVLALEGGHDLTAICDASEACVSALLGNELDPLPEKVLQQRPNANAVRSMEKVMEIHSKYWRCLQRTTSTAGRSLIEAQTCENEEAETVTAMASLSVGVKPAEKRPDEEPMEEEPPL
Chain of HDAC2 (Q92769 whole entry): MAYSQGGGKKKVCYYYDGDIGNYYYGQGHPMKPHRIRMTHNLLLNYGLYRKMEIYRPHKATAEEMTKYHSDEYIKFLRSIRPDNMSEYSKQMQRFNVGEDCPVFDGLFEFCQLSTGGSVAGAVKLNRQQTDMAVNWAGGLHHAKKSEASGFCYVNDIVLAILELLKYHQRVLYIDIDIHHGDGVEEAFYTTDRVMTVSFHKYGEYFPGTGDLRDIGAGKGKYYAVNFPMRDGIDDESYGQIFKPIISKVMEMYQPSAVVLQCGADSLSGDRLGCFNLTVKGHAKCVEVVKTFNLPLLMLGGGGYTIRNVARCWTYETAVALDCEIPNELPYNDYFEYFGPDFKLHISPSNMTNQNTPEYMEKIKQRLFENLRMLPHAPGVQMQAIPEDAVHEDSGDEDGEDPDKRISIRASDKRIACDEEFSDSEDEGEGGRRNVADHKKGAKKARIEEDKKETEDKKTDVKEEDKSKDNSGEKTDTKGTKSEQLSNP
Chain of EGFR (P00533 25-1210): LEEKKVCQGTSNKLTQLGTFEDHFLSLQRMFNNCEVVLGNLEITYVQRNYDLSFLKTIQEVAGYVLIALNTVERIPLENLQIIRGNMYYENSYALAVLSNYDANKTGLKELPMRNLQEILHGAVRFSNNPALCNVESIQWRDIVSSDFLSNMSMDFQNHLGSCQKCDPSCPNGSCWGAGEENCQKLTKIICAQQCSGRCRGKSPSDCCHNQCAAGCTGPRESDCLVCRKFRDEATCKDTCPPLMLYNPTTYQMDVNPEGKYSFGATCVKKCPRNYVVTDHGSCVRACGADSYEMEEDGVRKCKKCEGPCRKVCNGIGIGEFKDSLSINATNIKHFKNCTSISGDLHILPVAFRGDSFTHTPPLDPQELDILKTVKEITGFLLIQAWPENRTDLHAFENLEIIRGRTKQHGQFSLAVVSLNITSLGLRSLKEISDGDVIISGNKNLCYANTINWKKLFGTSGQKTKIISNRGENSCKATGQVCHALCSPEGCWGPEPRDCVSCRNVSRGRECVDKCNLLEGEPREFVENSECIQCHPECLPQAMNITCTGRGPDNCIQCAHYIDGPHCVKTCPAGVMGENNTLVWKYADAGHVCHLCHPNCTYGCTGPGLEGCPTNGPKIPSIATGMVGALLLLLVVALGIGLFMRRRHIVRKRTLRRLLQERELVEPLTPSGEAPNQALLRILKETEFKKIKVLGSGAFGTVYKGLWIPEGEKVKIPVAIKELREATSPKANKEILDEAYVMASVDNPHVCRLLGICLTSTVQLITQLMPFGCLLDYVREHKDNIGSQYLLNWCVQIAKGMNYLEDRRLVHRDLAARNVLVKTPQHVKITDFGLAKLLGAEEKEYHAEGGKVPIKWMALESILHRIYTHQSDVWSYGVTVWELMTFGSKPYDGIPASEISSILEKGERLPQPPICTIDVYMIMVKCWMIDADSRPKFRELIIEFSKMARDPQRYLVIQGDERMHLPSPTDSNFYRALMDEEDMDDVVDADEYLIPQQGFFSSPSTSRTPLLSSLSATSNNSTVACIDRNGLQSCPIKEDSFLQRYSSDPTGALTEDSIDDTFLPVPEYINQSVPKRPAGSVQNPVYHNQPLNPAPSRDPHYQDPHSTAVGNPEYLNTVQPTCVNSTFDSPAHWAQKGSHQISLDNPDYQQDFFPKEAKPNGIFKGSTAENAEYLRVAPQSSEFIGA

Row | Compound | IC50 [1] [µM] | IC50 [2] [µM] | IC50 [3] [µM] | melting point [°C] | IC50 [4] [µM] | IC50 [5] [µM] | IC50 [6] [µM] | IC50 [7] [µM] | IC50 [8] [µM] | IC50 [9] [µM] | IC50 [10] [µM] | Caspase-3 Conc [11] [pg/mL] | Caspase-3 Conc ([11]; listed as staurosporine) [pg/mL] | Caspase-8 Conc [12] [ng/mL] | Caspase-8 Conc ([12]; listed as staurosporine) [ng/mL] | Bax Conc [13] [pg/mL] | Bax Conc ([13]; listed as staurosporine) [pg/mL]
1 | COc1cc(/C=C/C(=O)c2ccc(OCCCCC(=O)O)cc2)cc(OC)c1OC [2a, (E)-5-(4-(3-(3,4,5-Trimethoxyphenyl)Acryloyl)Phenoxy)Pentanoic Acid] | 44.4 ± 2.39 | 40.1 ± 2.16 | 59.9 ± 3.23 | 102 to 105 | 88.4 ± 4.76 | – | – | – | – | – | – | – | – | – | – | – | –
2 | COc1cc(/C=C/C(=O)c2ccc(OCCCCCC(=O)O)cc2)cc(OC)c1OC [2b, (E)-6-(4-(3-(3,4,5-Trimethoxyphenyl)Acryloyl)Phenoxy)Hexanoic Acid] | 33.7 ± 1.82 | 23.7 ± 1.28 | 39.4 ± 2.12 | 138 to 140 | 30.4 ± 1.64 | – | – | – | – | – | – | – | – | – | – | – | –
3 | COc1cc(/C=C/C(=O)c2ccc(OCCCCCCC(=O)O)cc2)cc(OC)c1OC [2c, (E)-7-(4-(3-(3,4,5-Trimethoxyphenyl)Acryloyl)Phenoxy)Heptanoic Acid] | 22.7 ± 1.22 | 16.5 ± 0.89 | 14.8 ± 0.8 | 112 to 115 | 17.1 ± 0.92 | – | – | – | – | – | – | – | – | – | – | – | –
4 | COc1cc(-c2cc(-c3ccc(OCCCCC(=O)O)cc3)[nH]c(=O)c2C#N)cc(OC)c1OC [3a, 5-(4-(5-Cyano-6-Oxo-4-(3,4,5-Trimethoxyphenyl)-1,6-Dihydropyridin-2-yl)Phenoxy)Pentanoic Acid] | 31 ± 1.67 | 23.5 ± 1.27 | 46.4 ± 2.54 | 224 to 228 | 65.8 ± 3.55 | – | – | – | – | – | – | – | – | – | – | – | –
5 | COc1cc(-c2cc(-c3ccc(OCCCCCC(=O)O)cc3)[nH]c(=O)c2C#N)cc(OC)c1OC [3b, 6-(4-(5-Cyano-6-Oxo-4-(3,4,5-Trimethoxyphenyl)-1,6-Dihydropyridin-2-yl)Phenoxy) Hexanoic Acid] | 15.3 ± 0.82 | 15.7 ± 0.85 | 12.2 ± 0.65 | – | 16.2 ± 0.87 | – | – | – | – | – | – | – | – | – | – | – | –
6 | COc1cc(-c2cc(-c3ccc(OCCCCCCC(=O)O)cc3)[nH]c(=O)c2C#N)cc(OC)c1OC [3c, 7-(4-(5-Cyano-6-Oxo-4-(3,4,5-Trimethoxyphenyl)-1,6-Dihydropyridin-2-yl)Phenoxy) Heptanoic Acid] | 21.3 ± 1.15 | 13.9 ± 0.75 | 23.7 ± 1.28 | 168 to 170 | 21.1 ± 1.14 | – | – | – | – | – | – | – | – | – | – | – | –
7 | COc1cc(/C=C/C(=O)c2ccc(OCCCCC(=O)NO)cc2)cc(OC)c1OC [4a, (E)-N-Hydroxy-5-(4-(3-(3,4,5-Trimethoxyphenyl)Acryloyl)Phenoxy) Pentanamide] | 2.07 ± 0.11 | 3.21 ± 0.17 | 1.97 ± 0.11 | 220 to 224 | 3.62 ± 0.2 | 0.121 | 6.69 | 0.119 | 6.35 | 0.111 ± 0.002 | 0.086 | – | – | – | – | – | –
8 | COc1cc(/C=C/C(=O)c2ccc(OCCCCCCC(=O)NO)cc2)cc(OC)c1OC [4c, (E)-N-Hydroxy-7-(4-(3-(3,4,5-Trimethoxyphenyl)Acryloyl)Phenoxy)Heptanamide] | 1.93 ± 0.14 | 1.59 ± 0.09 | 1.18 ± 0.06 | 122 to 128 | 2.54 ± 0.14 | 0.07 | 8.72 | 0.277 | 5.02 | 0.091 ± 0.001 | 0.113 | – | – | – | – | – | –
9 | COc1cc(-c2cc(-c3ccc(OCCCCC(=O)NO)cc3)[nH]c(=O)c2C#N)cc(OC)c1OC [5a, 5-(4-(5-Cyano-6-Oxo-4-(3,4,5-Trimethoxyphenyl)-1,6-Dihydropyridin-2-yl)Phenoxy)-N-Hydroxypentanamide] | 2.3 ± 0.12 | 4.67 ± 0.25 | 4.89 ± 0.26 | 232 to 238 | 3.46 ± 0.19 | 0.051 | 17.5 | 0.256 | 19.6 | 0.214 ± 0.004 | 0.222 | – | – | – | – | – | –
10 | COc1cc(-c2cc(-c3ccc(OCCCCCC(=O)NO)cc3)[nH]c(=O)c2C#N)cc(OC)c1OC [5b, 6-(4-(5-Cyano-6-Oxo-4-(3,4,5-Trimethoxyphenyl)-1,6-Dihydropyridin-2-yl)Phenoxy)-N-Hydroxyhexanamide] | 18.8 ± 1.01 | 16.9 ± 3.71 | 19.6 ± 1.05 | 198 to 204 | 28.3 ± 0.99 | – | – | – | – | – | – | – | – | – | – | – | –
11 | COc1cc(-c2cc(-c3ccc(OCCCCCCC(=O)NO)cc3)[nH]c(=O)c2C#N)cc(OC)c1OC [5c, 7-(4-(5-Cyano-6-Oxo-4-(3,4,5-Trimethoxyphenyl)-1,6-dihydropyridin-2-yl)phenoxy)-N-Hydroxyheptanamide] | 8.58 ± 0.46 | 9.47 ± 0.51 | 12.1 ± 0.65 | 170 to 176 | 27.6 ± 1.49 | – | – | – | – | – | – | – | – | – | – | – | –
12 | CN[C@@H]1C[C@H]2O[C@@](C)([C@@H]1OC)n1c3ccccc3c3c4c(c5c6ccccc6n2c5c31)C(=O)NC4 [Staurosporine, reference compound] | – | – | – | – | – | – | – | – | – | – | – | 445.9 ± 15.39 | 445.9 | 1.343 ± 0.026 | 1.343 | 362.2 ± 9.61 | 362.2
